The values that follow come from patent publication US8669260B2, “Ketoconazole-derivative antagonist of human pregnane X receptor and uses thereof” (priority 2008, dated 2014).

One data set deals with HepG2 cells. Conditions: for HepG2 cell proliferation (in words): 48 hours.
Data set [1] addresses T1, PXR (Homo sapiens, UniProt O75469).
T1 sequence (O75469 1-434): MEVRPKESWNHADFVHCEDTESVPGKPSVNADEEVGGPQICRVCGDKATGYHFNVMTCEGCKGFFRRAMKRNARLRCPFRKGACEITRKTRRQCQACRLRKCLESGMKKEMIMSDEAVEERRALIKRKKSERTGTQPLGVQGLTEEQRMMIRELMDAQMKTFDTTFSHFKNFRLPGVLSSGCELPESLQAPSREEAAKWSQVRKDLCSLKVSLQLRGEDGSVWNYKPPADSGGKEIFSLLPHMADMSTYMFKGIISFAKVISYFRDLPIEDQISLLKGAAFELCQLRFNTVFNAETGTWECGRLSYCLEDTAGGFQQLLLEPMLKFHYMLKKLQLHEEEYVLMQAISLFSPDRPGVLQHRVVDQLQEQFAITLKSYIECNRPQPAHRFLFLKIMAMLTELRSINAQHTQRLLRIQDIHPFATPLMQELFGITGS
Put plainly: cell-based. Details: expressed in transfected cells; host or cells: HepG2.

The target in data set [2] is T1, PXR. Put plainly: PXR transactivation assay (activation mode), HepG2 cells transfected with human PXR-pcDNA3 and CYP3A-Luc. It is filed as cell-based. Further details: expressed in transfected cells; host or cells: HepG2.
In data set [3] the test system is Caco-2, LS174T, SKOV3 and CRL cell lines. Description: Drug induced cytotoxicity by MTT assay in cancer and fibroblast cell lines. (In general: Tetrazolium dyes change colour on reduction, which living cells bring about.)
Data set [4] has as its system SKOV-3 cells. Description: Chemotherapeutic sensitivity assay in SKOV-3 cells with and without rifampicin.
The subject of data set [5] is PXR target genes in SKOV-3 cells. Description: Quantitative RT-PCR of PXR target genes in SKOV-3 cells. It is filed as cell-based. Conditions: 0-1.0 μM.
Method: In brief, total RNA was isolated using the Qiagen RNeasy Mini kit (QIAGEN, Inc., Valencia, Calif.). Reverse transcription was performed using Superscript first strand synthesis system (Invitrogen, Carlsbad, Calif.). For semi-quantitative PCR, one-tenth the reverse transcription (RT) reaction products were subjected to PCR amplification for 25 cycles in a singleplex format. […] Real time PCR for cDNA quantification was performed using TaqMan universal PCR master mix and TaqMan probes using, VIC as the 5′ reporter fluorochrome and tetramethylrhodamine (TAMRA) as the 3′ quencher fluorochrome. […] The reference gene, PPIA (Cyclophilin A), was a VIC/MGB probe (Applied Biosystems, Foster City, Calif.). The standard curves for PXR, CYP3A4, CYP2B6, UGT1A1, MDR1, and MRP-2 cDNA were constructed to ensure linearity in the concentration range studied. The PXR assay (ID #Hs01114267_m1) and the UGT1A1 assay (ID # Hs02511055_s1) were ordered through Applied Biosystems. […] Amplification was detected and analyzed using the ABI PRISM 7700 sequence detector with SDS 2.1 analysis software (Applied Biosystems, Foster City, Calif.). The relative fold increase in mRNA in samples compared with controls was calculated using the comparative CT method.
The next data set deals with LXR. Conditions: known potency; cited from earlier work.
Data set [6] has as its system SKOV-3 cells. Conditions: MTT; 48-96 hr exposure (T1317: 48 hours, normalized to GSK1385).
A further data set concerns the target CYP3A4 (Homo sapiens, UniProt P08684). Description: Time-dependent CYP3A4 inhibition assay in human liver microsome (midazolam 1-hydroxylase). Conditions: for Maximum % Inhibition, midazolam-1-hydroxylase activity / pIC50: human liver microsome; for pIC50: read-out: IC50, midazolam-1-hydroxylase activity. Here is the method: Briefly, test articles were incubated in a reaction mixture containing 5 μM midazolam, 0.1 mg/ml human liver microsomes and 1 mM NADPH for 5 min. The enzyme reaction was stopped by adding an equal volume of quench solution (H2O:acetonitrileformic-acid=94:5:1) containing ^13C-1-hydroxymdiazolam (0.1 μM final) as the internal standard. In order to test time-dependency of CYP3A4 inhibition, an identical reaction was started without midazolam and the reaction mixture was incubated for 30 min. After the pre-incubation, 5 μM midazolam was added and incubated for 5 min before the quench solution was added. The samples were centrifuged at 1,500 RPM for 15 min to precipitate denatured microsomal proteins. […] A percent CYP3A4 inhibition (% Inh) was calculated by the following equation:
[formula] CDMSO and Ccompound are concentrations of 1-hydroxymidazolam in the vehicle control and a compound tested, respectively. A plot of concentration-% Inh was then created and from the plot, IC50 and Maximum % Inhibition were reported.
A general note: Liver microsomes are vesicles of endoplasmic reticulum, rich in cytochrome P450 enzymes.

For data set [7], the target named is T1, PXR. Conditions: known potency; cited from earlier work.
For the next data set, the system named is LS174T cells. Description: LS174T cell growth (trypan blue counting, doubling time). Conditions: within 72 hours.
A further data set relates to SKOV-3 xenografts. Put plainly: In vivo SKOV-3 xenograft studies in NOD.SCID mice. How it is done:
HepG2 cells were processed into slides using histogel (Richard-Allan Scientific, Kalamazoo, Mich.). The slides were placed in a 59° C. oven in the morning of the experiments. For cells and tissue specimens, after de-waxing and re-hydrating the slides, slides were placed in a sodium citrate solution, pH 6.0 (Vector labs, Burlingame, Calif.) for 20 minutes. […] Cell sections were then immunostained with the biotin-streptavidin system from Vector Labs per manufacturer's instructions. Institutional IRB approval (#2007-902) was obtained for use of tissue sections from patients with serous papillary ovarian carcinoma and benign ovaries.
2×10^6 SKOV-3 cells were implanted by subcutaneous route into both flanks of NOD.SCID mice. On day 35 after inoculation, the mean (±SD) (n=32) volume of implanted tumor was 8 mm^3 (±3.5) (range: 4.3-18.3). […] Control intravenous injections consisted of 30% polyethylene glycol. The tumor volume was calculated twice a week using the following formula: Length (mm)×[Width (mm)]^2×π/6 (25).

Setting [8] is: non-linear regression, activation by 10 μM rifampicin, read-out: PXR Inhibition IC50.

pEC50, pIC50: −log10 of the molar value. Read-outs that look alike come from different tables or passages of the source. Some results are limits rather than exact numbers.

CYP3A4, sequence (P08684 whole entry): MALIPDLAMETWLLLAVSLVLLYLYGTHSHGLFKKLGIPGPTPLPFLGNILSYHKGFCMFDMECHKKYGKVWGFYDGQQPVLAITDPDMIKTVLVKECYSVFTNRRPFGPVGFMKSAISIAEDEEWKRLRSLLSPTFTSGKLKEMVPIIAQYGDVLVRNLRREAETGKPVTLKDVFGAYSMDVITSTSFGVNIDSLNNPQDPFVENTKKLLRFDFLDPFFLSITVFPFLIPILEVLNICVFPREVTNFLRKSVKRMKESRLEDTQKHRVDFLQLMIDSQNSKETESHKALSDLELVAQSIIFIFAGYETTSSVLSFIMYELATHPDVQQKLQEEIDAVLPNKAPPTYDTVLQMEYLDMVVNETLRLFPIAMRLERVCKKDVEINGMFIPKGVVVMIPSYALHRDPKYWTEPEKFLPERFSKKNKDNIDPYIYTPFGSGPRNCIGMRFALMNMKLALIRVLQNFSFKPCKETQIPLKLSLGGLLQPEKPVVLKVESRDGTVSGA

Broadly, the pIC50 is the negative decadic logarithm of the IC50, by convention in mol/L. Usually pEC50 stands for the EC50 on a negative log10 scale, so that one unit is a factor of ten. As to `CC(=O)N1CCN(c2ccc(OCC3COC(Cn4ccnc4)(c4ccc(Cl)cc4Cl)O3)cc2)CC1` (centres unmarked) [Ketoconazole, ketoconazole], the “HepG2 cell proliferation (in words)” value in the data set on HepG2 cells (combination of ketoconazole and rifampicin) is “cell proliferation is clearly decreased”. The compound also gave a non-viable cells in the data set with HepG2 cells (HepG2, 48 hours, 50 μM) above 35%. Moreover, on PXR [1], the pIC50 is 4.73 and the “inhibition of rifampicin-mediated PXR activation (in words)” value is “inhibitor of activated PXR”. Besides, the pEC50 at PXR [2] was below 4.30. In addition, at PXR [2] (PXR transactivation assay), the “PXR activation (in words)” value is “weak activator of PXR”. In addition, the viability in [3] (across all cell lines tested, effective concentration range for PXR inhibition (two times the IC50 ~30 μM), 48 hours) is given as 65-75%.
As for `CCc1c2c(nc3ccc(O)cc13)-c1cc3c(c(=O)n1C2)COC(=O)[C@]3(O)CC` [SN-38], the “resistance index induced by rifampicin” value in the data set on SKOV-3 cells [4] (IC50(R)/IC50 (no R)) is reported as around 17.5. The pIC50 with SKOV-3 cells [4] (read-out: IC50(R), SKOV-3 cells, with rifampicin) was around 5.46; in the data set on SKOV-3 cells [4] (read-out: IC50 (no R), SKOV-3 cells, without rifampicin), around 6.70.
Turning to `O=S(=O)(c1ccccc1)N(CC(F)(F)F)c1ccc(C(O)(C(F)(F)F)C(F)(F)F)cc1` [T0901317], the “PXR target gene induction (in words)” value in data set [5] was “same profile of gene expression”. Besides, in the data set on LXR, the negative-log EC50 (pEC50) is […]. Also, in the data set with SKOV-3 cells [6], the “SKOV-3 cell survival (in words)” value is “significant increase in cell survival”.
Consider `CC(=O)N1CCN(c2ccc(OC[C@H]3CO[C@@](C)(c4ccc(Cl)cc4Cl)O3)cc2)CC1` [UCL2158H], for which the “Maximum % Inhibition Observed” value at PXR [1] is recorded as 109%. Moreover, the “inhibition of rifampicin-mediated PXR activation (in words)” value against PXR [1] (PXR transactivation assay) was “most potent inhibitors of PXR”. Besides, the values for the pIC50 on PXR [1] (setting [8]), at CYP3A4 (+preincubation (30 min)) and at CYP3A4 (−preincubation) were 4.84, 4.71 and 4.97, respectively. For the same compound, the “PXR Inhibition Imax” value on PXR [1] (non-linear regression, maximal inhibition of PXR activation with 10 μM rifampicin) turned out to be 128%. Further, on PXR [2] (PXR transactivation relative to 10 μM rifampicin, HepG2, 24 h, 50 μM-2.5 nM), the “Maximum % Activation Observed” value is 10%. Moreover, on PXR [2] (non-linear regression analysis, read-out: PXR Activation EC50), the pEC50 was below 4.30. Besides, the “cytotoxicity (in words)” value in [3] (epithelial cells, concentration range up to 100 μM, MTT) is “less cytotoxic than ketoconazole”. Further, the figures for the “Maximum % Inhibition, midazolam-1-hydroxylase activity” value on CYP3A4 (+preincubation (30 min)) and on CYP3A4 (−preincubation) were 67% and 80%, respectively. For the same compound, at CYP3A4 (IC50 with vs without 30 min preincubation), the “time-dependency of CYP3A4 inhibition” value is listed as “no time-dependency”.
Take `C/C(=C\c1csc(C)n1)[C@@H]1C[C@@H]2O[C@]2(C)CCC[C@H](C)[C@H](O)[C@@H](C)C(=O)C(C)(C)[C@@H](O)CC(=O)N1` [ixabepilone]: the “% increased survival relative to ixabepilone without rifampicin” value in the data set with SKOV-3 cells [4] (SKOV-3, ixabepilone 0.1-50 μM in the presence of rifampicin, average) is reported as around 20%.
Turning to `CC(=O)O[C@H]1C(=O)[C@@]2(C)[C@H]([C@H](OC(=O)c3ccccc3)[C@]3(O)C[C@H](OC(=O)[C@H](O)[C@@H](NC(=O)c4ccccc4)c4ccccc4)C(C)=C1C3(C)C)[C@]1(OC(C)=O)CO[C@@H]1C[C@@H]2O` [paclitaxel], the negative logarithm of the IC50 (pIC50) is around 4.40 in the data set on SKOV-3 cells [4] (Homo sapiens, SK-OV-3, read-out: IC50 with rifampicin (R)) and around 5.40 in the data set with SKOV-3 cells [4] (Homo sapiens, SK-OV-3, read-out: IC50 without rifampicin (no R)). The “resistance index induced by rifampicin” value in the data set on SKOV-3 cells [4] (IC50 with rifampicin / IC50 without rifampicin) is reported as around 10 fold.
As for rifampicin, the “effect on cytotoxicity of ixabepilone, paclitaxel and SN-38 (in words)” value with SKOV-3 cells [4] (SKOV-3 cells, rifampicin 20 μM) is “significantly decreased the cytotoxicity”. Besides, in the data set on HepG2 cells (single agent), the “HepG2 cell proliferation (in words)” value is “concentration dependent proliferation of cells”. Moreover, on PXR [1] (setting [8]), the pIC50 is below 4.30. Further, the pEC50 on PXR [7] is 5.70 to 6.00. The figures for the “growth rate constant (k=ln 2/g)” value with LS174T cells (PXR knockdown LS174T cells) and with LS174T cells (vector-transfected LS174T cells) were around 0.008 hr^−1 and around 0.02 hr^−1, respectively. The “Ki67 stained cells, mean (SEM)” value in the data set with SKOV-3 xenografts (SKOV-3 xenografts, NOD.SCID mice, 40 mg/kg/day i.v., control 577.0 (21), p<0.00001) is 937.0 (37). In addition, the “tumor size at necropsy and tumor weight (in words)” value with SKOV-3 xenografts (day 60, versus control) was “significantly larger tumors”. In the data set on SKOV-3 xenografts (days 45-60, versus controls), the “tumor volumes (in words)” value is reported as “significantly higher”.
